These results are taken from US11026918B2, “Method of preventing or treating a pulmonary disease or condition” (THE BOARD OF TRUSTEES OF THE UNIVERSITY OF ILLINOIS, priority 2014, dated 2021).

For orientation: IC50 means the concentration at which inhibition is half-maximal. By Ki is commonly meant the dissociation constant of the complex between target and ligand, obtained from inhibition or displacement.

Series [1] concerns the target sphingosine kinase-1/SphK1 (Homo sapiens, UniProt Q9NYA1). Particulars: cited from earlier work.
Another series deals with HLMVECs. Nature of the series: Hyperoxia-induced S1P generation, p47phox activation and ROS generation in HLMVECs, PF-543. It counts as cell-based, human. An excerpt: HLMVECs were transfected with p47-roGFP prior to exposure to hyperoxia.
Series [2] deals with human lung fibroblasts. Briefly: TGF-β-mediated differentiation of human lung fibroblasts, PF-543. It counts as cell-based. An excerpt: TGF-β-induced fibroblast differentiation was characterized to analyze the expression of fibronectin and α-SMA. […] Additionally, compared with the control mouse lung fibroblast (from wild-type mice), TGF-β-induced fibroblast differentiation and expression of YAP1 were dramatically lower in the lung fibroblast isolated from SphK1^−/− mice. Accordingly, selective inhibition of SphK1 is useful in the prevention and treatment of bleomycin-induced pulmonary fibrosis.

The conditions of series [3]: cited from earlier work.
For another series, the system named is S1P receptors. To be noted: cited from earlier work.
The subject of series [4] is bleomycin-challenged C57BL/6J mice. Nature of the series: Bleomycin-induced pulmonary fibrosis in mice treated with PF-543. The format is in vivo. Particulars: PF-543 i.p. 5 mg/kg twice per week. As for the experimental part: In Vivo Studies. In this analysis, 8 week-old, wild-type, C57BL/6J mice were treated with 1.5 U/kg bleomycin.
In series [5] the test system is newborn mice exposed to hyperoxia (75%). Nature of the series: Hyperoxia-induced lung injury in newborn mice. It counts as in vivo. To be noted: PF-543 20 mg/kg/day. From the text: Therefore, PF-543 protected the lungs of the newborn mice from oxygen injury.
Series [6] has as its system adult mice exposed to oxygen (75%). Nature of the series: Hyperoxia-induced lung injury in adult mice. The format is in vivo. To be noted: 5 mg/kg/d PF-543 x 2 days prior to oxygen (75%).
In series [7] the test system is human lung fibroblasts. To be noted: SKI-II; cited from earlier work.
For series [8], the system named is human lung microvascular endothelial cells (HLMVECs). Particulars: SKI-II, cited from earlier work.
Another series deals with rats exposed to hypoxia. To be noted: SKI-II 10 mg/kg intraperitoneally, once every other day for 3.5 weeks; vs vehicle; cited from earlier work.
In series [9] the test system is bleomycin-challenged mice. To be noted: SKI-II eight days post-bleomycin challenge; cited from earlier work.
Another series relates to irradiated C57B1/6 mice. Particulars: 20 Gy thoracic irradiation, cited from earlier work.
[10] abbreviates: PF-543 1-5 μM, 1 hour pretreatment, TGF-β 5 ng/ml, 48 hours.
Where [11] appears, read: 0.375 mg/kg myriocin p.o. 3x/week, 0.375 mg/kg.

Entries after “also recorded” stand apart in the source; their conditions may differ.

Sequence of sphingosine kinase-1/SphK1 (Q9NYA1 whole entry): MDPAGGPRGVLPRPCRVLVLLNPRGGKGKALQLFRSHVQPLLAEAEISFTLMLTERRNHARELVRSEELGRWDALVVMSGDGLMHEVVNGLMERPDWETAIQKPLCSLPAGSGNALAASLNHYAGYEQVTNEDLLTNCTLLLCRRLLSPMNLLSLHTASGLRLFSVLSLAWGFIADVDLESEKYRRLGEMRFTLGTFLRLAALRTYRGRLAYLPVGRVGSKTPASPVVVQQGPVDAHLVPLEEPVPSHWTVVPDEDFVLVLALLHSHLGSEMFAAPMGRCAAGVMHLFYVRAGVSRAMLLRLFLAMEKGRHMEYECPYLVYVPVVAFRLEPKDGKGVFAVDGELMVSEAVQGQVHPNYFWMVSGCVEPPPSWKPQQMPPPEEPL

Take `CCCCCCCCCCCCc1ccc(C(=O)NC2(C(=N)N)CC2)cc1` [Compound 1]: in [1], the “selectivity for SphK1 over SphK2” value is on record as 5 fold.

Take `CCCCCCCCCCCCCC#CC(=O)C1COC(C)(C)N1C(=O)OC(C)(C)C` (stereo not shown) [SKI 5C]: in series [1], the IC50 is 3.3 µM.

For the molecule `Cc1cc(CS(=O)(=O)c2ccccc2)cc(OCc2ccc(CN3CCC[C@@H]3CO)cc2)c1` [PF-543, [(2R)-1-[[4-[[3-(benzenesulfonylmethyl)-5-methylphenoxy]methyl]phenyl]methyl]pyrrolidin-2-yl] methanol], in the series with HLMVECs, the “attenuation of hyperoxia-mediated [32P]S1P generation” value is listed as > 80% and the “hyperoxia-induced ROS generation” value was “attenuates; also recorded: inhibited”. In addition, the “exogenous S1P-mediated translocation of p47phox to cell periphery / activation” value in the series on HLMVECs (exogenous S1P instead of hyperoxia) is reported as “not affected; also recorded: did not affect”. The “hyperoxia-induced aggregation and stimulation of p47phox biosensor protein (p47-roGFP)” value in the series with HLMVECs (live cell imaging, HLMVECs transfected with p47-roGFP) is on record as “suppressed”. Besides, the “hyperoxia-induced p47phox translocation to cell periphery / activation of p47phox” value with HLMVECs (pre-treated with PF-543) is “inhibited; also recorded: attenuated”. Also, in the series on human lung fibroblasts [2] (setting [10]), the “TGF-β-induced expression of fibronectin and α-SMA” value is listed as “decreased; also recorded: dramatically inhibited”; the “TGF-β-mediated fibroblast differentiation to myofibroblasts” value is reported as “attenuated; also recorded: dramatically inhibited”. Also, the “TGF-β-induced expression of YAP1” value with human lung fibroblasts [2] (PF-543 pretreatment, TGF-β) is “attenuated; also recorded: dramatically inhibited”. The cell permeability result in series [3] was “cell-permeable”. Moreover, the “affinity toward S1P receptors” value in the series on S1P receptors is listed as “does not exhibit any affinity”. Further, the “protection against lung injury and pulmonary fibrosis” value in series [4] (1.5 U/kg bleomycin, day 7 to 21 post-bleomycin, 5 mg/kg) was “ameliorates; also recorded: partly protected”. Also, in [4] (day 7 to 21 post-bleomycin), the “TGF-β levels in bronchoalveolar lavage (BAL) fluids” value is given as “decreased”; the “expression of α-SMA and fibronectin in lung tissues” value is reported as “decreased”. The total collagen deposition result in series [4] (day 7 to 21 post-bleomycin, vs bleomycin without PF-543) was “decreased”. Moreover, in series [4] (day 21 to 42 post-bleomycin), the “Ashcroft's score” value is listed as “decrease”, the collagen deposition result is on record as “decrease” and the “resolution of pulmonary fibrosis” value was “enhanced resolution”. In addition, the lung structure entry in [5] was “well preserved”. Moreover, in [6], the “BAL fluid total protein concentration” value was “decreases; also recorded: reduced”, the “BAL inflammatory cell infiltrate (WBC count)” value was “decreases; also recorded: reduced”, the hyperoxia-induced lung injury result was “attenuated” and the “lung inflammatory fluid infiltration (lung histology)” value was “reduced”.

Regarding `N=C(N)C1(C(=O)NCCCCCCCCCCOCC2CCCCC2)CC1` [Compound 4], the “selectivity for SphK1 over SphK2” value in series [1] was 470 fold.

Consider `CCCCCCCCCCCCc1ccc(NC(=O)C2(C(=N)N)CC2)cc1` [Compound 2], for which, in [1], the Ki is 300 nM and the “selectivity for SphK1 over SphK2” value is listed as 40 fold.

As for `Oc1ccc(Nc2nc(-c3ccc(Cl)cc3)cs2)cc1` [SKI-II, 4-[[4-(4-chlorophenyl)-2-thiazolyl]amino]-phenol], the “S1P generation and TGF-β-mediated signal transduction” value in the series on human lung fibroblasts [7] is reported as “attenuates”. The “ROS production under hyperoxia (DCFDA fluorescence)” value in series [8] (24 hours before hyperoxia (95% O2) for 3 hours) is given as “blocked”. The “hyperoxia-induced S1P generation” value in [8] was “attenuates”. Besides, the “development of HPH (RVSP, RVH, pulmonary vascular remodeling)” value with rats exposed to hypoxia was “prevents”. Besides, in series [9], the bleomycin-induced mortality entry is “reduces” and the bleomycin-induced pulmonary fibrosis entry is reported as “reduces”.

As for `CCCCCCCCCCCCCCC[C@@H](O)C(C)N` (stereo partly shown) [Compound 55-21], in [1], the IC50 is 7.1 µM and the “selectivity for SphK1 over SphK2” value is ~108 fold.

Consider `N=C(N)[C@@H]1CCCN1C(=O)c1ccc(-c2nc(-c3cccc(CCC4CCCCC4)c3)co2)cc1` [Compound 5], for which the “selectivity for SphK1 over SphK2” value in series [1] was 180 fold.

Turning to `CCCCCCC(=O)CCCCCC/C=C/C[C@@H](O)[C@H](O)[C@@](N)(CO)C(=O)O` [myriocin], in the series on irradiated C57B1/6 mice (setting [11]), the “radiation-induced pulmonary fibrosis (onset of RIF)” value is recorded as “decreases; also recorded: delays” and the radiation-induced pulmonary inflammation entry was “decreases; also recorded: reduces”. Moreover, the “animal lifespan (survival)” value with irradiated C57B1/6 mice (0.375 mg/kg myriocin p.o. 3x/week) is recorded as “increased”. In the series on irradiated C57B1/6 mice (myriocin), the “SphK2 mRNA levels and protein expression” value was “Neither parameter is affected”; the “expression of markers of fibrogenesis (collagen, α-SMA) in the lung” value is given as “decreased”; the “radiation-increased SphK1 mRNA levels and SphK1 protein expression” value is “decreased”; the “radiation-induced increase in total SphK activity in lung tissue” value is “hinder; also recorded: inhibition”.
